ChEMBL document CHEMBL1136318, “Synthesis and X-ray crystal structures of substituted fluorobenzene and benzoquinone inhibitors of the tissue factor VIIa complex” (Bioorg Med Chem Lett, 2003)

Tests used:
Coagulation factor X = Coagulation factor X (Homo sapiens, UniProt P00742); experiment: Inhibitory activity against coagulation factor X
Prothrombin = Prothrombin (Homo sapiens, UniProt P00734); experiment: Inhibitory activity against thrombin

Coagulation factor X, sequence (P00742 41-179 limits assumed): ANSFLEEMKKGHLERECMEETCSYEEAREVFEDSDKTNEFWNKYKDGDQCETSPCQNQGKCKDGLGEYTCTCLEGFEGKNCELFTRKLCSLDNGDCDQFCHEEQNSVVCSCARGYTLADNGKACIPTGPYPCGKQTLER
Coagulation factor X, sequence (P00742 235-488 limits assumed): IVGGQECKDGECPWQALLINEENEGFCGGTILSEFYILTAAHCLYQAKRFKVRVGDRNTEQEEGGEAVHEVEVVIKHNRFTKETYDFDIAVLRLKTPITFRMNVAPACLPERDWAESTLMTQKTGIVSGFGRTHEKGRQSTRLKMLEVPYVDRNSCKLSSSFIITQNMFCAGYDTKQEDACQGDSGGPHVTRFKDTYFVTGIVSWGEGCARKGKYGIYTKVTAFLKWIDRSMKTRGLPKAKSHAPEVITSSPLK

Row | SMILES | IC50 (Coagulation factor X) [µM] | IC50 (Prothrombin) [µM]
1 | CC(C)Nc1ccc(-c2cccc(N)c2)c(CC(=O)NCc2ccc(C(=N)N)cc2)c1F | > 30 | –
2 | CC(C)/N=C1\C=C(O)C(c2ccccc2)=C(CC(=O)NCc2ccc(C(=N)N)cc2)C1=O | – | > 30
